# Data: publication PMC3961306, “Comparison of the Cancer Gene Targeting and Biochemical Selectivities of All Targeted Kinase Inhibitors Approved for Clinical Use” (PLoS ONE, 2014)
# How the values were obtained:
# Assay in all cases: Kinase profiling in a biochemical assay panel (mobility shift assays and ELISA), %-inhibition at 1 μM; selectivity entropy
# [1] = biological target: T1, panel of more than 300 wild-type and mutant kinases (313 kinase panel) (Homo sapiens, UniProt O14757)
# T1 sequence (O14757 1-476): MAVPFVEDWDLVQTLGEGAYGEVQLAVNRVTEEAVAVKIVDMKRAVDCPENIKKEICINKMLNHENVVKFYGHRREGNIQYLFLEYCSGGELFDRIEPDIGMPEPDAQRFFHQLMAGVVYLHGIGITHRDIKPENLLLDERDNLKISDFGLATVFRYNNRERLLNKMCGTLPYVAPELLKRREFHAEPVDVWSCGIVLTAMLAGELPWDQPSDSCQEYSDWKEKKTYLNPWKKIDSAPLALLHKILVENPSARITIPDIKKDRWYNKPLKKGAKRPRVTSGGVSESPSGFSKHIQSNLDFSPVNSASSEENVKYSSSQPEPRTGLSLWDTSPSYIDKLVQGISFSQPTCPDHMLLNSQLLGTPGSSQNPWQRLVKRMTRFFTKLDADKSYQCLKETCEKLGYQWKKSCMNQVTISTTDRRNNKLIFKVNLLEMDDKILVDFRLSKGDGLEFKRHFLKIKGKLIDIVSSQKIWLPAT
# [2] = biological target: panel of more than 300 wild-type and mutant kinases (313 kinase panel) (Homo sapiens, UniProt P22455, V550L); conditions: kinase FGFR4(V550L); compound at 1 μM
# [3] = biological target: panel of more than 300 wild-type and mutant kinases (313 kinase panel) (Homo sapiens, UniProt P53667)
# [4] = biological target: T2, panel of more than 300 wild-type and mutant kinases (313 kinase panel) (Homo sapiens, UniProt P54760)
# T2 sequence (P54760 16-987): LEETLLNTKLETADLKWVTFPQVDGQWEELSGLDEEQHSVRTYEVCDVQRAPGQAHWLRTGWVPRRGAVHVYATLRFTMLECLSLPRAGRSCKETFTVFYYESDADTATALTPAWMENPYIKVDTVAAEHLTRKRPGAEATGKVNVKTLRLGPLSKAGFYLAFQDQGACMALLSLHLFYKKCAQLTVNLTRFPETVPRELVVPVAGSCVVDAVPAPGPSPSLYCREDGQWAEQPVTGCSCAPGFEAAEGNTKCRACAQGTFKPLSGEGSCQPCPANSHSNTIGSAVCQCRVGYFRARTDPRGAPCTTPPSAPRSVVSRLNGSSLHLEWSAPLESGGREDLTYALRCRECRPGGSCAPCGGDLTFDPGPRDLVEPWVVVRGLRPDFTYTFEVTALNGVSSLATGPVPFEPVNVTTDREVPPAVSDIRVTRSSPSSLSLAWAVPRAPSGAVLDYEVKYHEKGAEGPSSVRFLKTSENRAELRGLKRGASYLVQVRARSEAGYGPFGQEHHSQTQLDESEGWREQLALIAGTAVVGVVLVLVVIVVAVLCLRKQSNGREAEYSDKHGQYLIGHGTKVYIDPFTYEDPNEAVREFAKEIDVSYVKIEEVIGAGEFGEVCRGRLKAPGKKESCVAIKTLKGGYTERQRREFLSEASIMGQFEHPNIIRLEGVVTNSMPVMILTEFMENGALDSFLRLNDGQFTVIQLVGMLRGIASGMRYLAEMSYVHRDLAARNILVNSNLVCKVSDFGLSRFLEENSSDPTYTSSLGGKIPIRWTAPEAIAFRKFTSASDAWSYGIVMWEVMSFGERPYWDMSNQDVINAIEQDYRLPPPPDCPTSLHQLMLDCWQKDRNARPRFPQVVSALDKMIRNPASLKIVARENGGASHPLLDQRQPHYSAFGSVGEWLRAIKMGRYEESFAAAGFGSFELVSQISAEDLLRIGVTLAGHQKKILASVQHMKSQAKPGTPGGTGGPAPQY
# [5] = biological target: panel of more than 300 wild-type and mutant kinases (313 kinase panel) (Homo sapiens, UniProt P11362)
# [6] = biological target: T3, panel of more than 300 wild-type and mutant kinases (313 kinase panel) (Homo sapiens, UniProt Q96L34)
# T3 sequence (Q96L34 1-752): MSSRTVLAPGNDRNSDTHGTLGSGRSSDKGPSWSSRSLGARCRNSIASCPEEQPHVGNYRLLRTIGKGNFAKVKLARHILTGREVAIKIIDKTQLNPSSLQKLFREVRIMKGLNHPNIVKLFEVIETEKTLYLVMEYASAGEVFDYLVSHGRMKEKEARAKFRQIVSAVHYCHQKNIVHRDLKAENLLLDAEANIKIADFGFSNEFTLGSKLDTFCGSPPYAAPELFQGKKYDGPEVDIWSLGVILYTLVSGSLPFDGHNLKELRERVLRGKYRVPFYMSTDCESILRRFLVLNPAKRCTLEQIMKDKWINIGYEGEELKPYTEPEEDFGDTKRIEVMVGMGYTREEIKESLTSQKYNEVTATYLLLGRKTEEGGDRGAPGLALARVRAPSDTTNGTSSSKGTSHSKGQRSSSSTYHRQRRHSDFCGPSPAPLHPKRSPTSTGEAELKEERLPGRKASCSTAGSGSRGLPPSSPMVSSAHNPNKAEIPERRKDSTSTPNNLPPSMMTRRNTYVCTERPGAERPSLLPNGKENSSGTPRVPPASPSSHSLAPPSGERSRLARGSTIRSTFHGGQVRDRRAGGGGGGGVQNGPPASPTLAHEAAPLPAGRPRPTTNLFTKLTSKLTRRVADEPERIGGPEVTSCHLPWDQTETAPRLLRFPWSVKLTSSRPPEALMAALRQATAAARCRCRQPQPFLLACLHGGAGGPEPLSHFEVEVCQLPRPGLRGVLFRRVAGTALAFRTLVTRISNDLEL
# panel of more than 300 wild-type and mutant kinases (313 kinase panel) (Homo sapiens, UniProt P22455, V550L), sequence (P22455 22-802 V550L): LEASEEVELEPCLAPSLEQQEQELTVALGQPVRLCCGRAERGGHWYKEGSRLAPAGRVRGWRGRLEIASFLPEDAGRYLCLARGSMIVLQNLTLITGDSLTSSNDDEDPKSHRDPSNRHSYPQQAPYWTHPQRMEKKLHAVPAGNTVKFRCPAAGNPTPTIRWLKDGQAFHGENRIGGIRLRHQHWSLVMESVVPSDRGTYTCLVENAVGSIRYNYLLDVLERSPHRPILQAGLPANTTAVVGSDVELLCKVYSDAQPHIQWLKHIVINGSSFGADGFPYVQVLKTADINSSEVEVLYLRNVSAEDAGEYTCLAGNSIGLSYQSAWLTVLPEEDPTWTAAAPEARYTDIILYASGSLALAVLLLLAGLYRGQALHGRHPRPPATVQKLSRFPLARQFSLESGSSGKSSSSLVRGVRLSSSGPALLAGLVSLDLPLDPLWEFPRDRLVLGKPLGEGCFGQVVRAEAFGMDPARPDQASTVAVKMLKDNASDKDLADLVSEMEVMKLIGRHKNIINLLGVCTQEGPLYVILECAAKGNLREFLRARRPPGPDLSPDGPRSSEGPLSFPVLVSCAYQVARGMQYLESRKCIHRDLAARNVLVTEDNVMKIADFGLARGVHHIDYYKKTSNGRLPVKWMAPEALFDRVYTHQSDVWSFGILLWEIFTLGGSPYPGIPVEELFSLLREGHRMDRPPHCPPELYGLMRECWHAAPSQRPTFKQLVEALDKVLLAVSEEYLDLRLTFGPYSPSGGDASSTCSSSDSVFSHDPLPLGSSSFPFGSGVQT
# panel of more than 300 wild-type and mutant kinases (313 kinase panel) (Homo sapiens, UniProt P11362), sequence (P11362 22-822, change not shown): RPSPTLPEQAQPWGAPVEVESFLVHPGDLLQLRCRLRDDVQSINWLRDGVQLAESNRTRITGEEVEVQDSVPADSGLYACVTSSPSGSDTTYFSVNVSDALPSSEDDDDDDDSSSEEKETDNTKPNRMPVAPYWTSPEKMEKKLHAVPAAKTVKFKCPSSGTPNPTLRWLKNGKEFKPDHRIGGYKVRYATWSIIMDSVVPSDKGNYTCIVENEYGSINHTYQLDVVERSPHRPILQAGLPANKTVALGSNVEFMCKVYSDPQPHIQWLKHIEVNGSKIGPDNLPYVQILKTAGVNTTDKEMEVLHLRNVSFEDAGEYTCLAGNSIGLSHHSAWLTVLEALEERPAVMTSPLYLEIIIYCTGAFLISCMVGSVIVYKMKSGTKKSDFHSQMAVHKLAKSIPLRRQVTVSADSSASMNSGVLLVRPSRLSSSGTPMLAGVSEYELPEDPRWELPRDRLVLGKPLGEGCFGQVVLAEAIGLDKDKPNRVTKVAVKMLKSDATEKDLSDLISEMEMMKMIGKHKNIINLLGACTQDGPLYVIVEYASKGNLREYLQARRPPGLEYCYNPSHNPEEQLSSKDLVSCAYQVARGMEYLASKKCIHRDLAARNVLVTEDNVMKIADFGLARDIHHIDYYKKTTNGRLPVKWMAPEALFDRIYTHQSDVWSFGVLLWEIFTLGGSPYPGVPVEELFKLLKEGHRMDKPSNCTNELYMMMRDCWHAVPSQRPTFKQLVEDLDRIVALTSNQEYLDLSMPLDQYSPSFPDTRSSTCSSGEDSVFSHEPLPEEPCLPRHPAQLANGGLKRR
SMILES,"%-inhibition, CHK1 ([1]; kinase CHK1, 1 μM compound) [%]",%-inhibition of FGFR4(V550L) [2] [%],"%-inhibition of LIMK1 ([3]; kinase LIMK1, compound at 1 μM) [%]","%-inhibition of EPHB4 ([4]; kinase EPHB4, compound at 1 μM) [%]","%-inhibition of FGFR1 ([5]; kinase FGFR1, compound at 1 μM) [%]","%-inhibition of MARK4 ([6]; kinase MARK4, compound at 1 μM) [%]","%-inhibition, CHK1 ([1]; 1 µM) [%]",%-inhibition of FGFR1 ([5]; 1 µM) [%],%-inhibition of LIMK1 ([3]; 1 µM) [%],%-inhibition of EPHB4 ([4]; 1 µM) [%],%-inhibition of MARK4 ([6]; 1 µM) [%]
COc1cc(Nc2c(C#N)cnc3cc(OCCCN4CCN(C)CC4)c(OC)cc23)c(Cl)cc1Cl [bosutinib],83,-7,-7,96,–,–,–,–,–,–,–
COc1cc2nccc(Oc3ccc(NC(=O)C4(C(=O)Nc5ccc(F)cc5)CC4)cc3)c2cc1OC [cabozantinib],4.42,-1.35,51,96,16,-9,–,–,–,–,–
C[C@@H](Oc1cc(-c2cnn(C3CCNCC3)c2)cnc1N)c1c(Cl)ccc(F)c1Cl [crizotinib],10,0.45,94,83,17,51,–,–,–,–,–
CC(C)(C)c1nc(-c2cccc(NS(=O)(=O)c3c(F)cccc3F)c2F)c(-c2ccnc(N)n2)s1 [dabrafenib],–,-1.08,100,–,10,-27,–,–,–,–,–
C#Cc1cccc(Nc2ncnc3cc(OCCOC)c(OCCOC)cc23)c1 [erlotinib],–,–,–,–,–,–,14,24,0.0961,33,14
CO[C@H]1C[C@@H]2CC[C@@H](C)[C@@](O)(O2)C(=O)C(=O)N2CCCC[C@H]2C(=O)O[C@H]([C@H](C)C[C@@H]2CC[C@@H](OCCO)[C@H](OC)C2)CC(=O)[C@H](C)/C=C(\C)[C@@H](O)[C@@H](OC)C(=O)[C@H](C)C[C@H](C)/C=C/C=C/C=C/1C [everolimus],4,-10,3.28,-4.49,-8,-27,–,–,–,–,–
O=S(=O)(c1cccc2cnccc12)N1CCCNCC1 [fasudil],-11,–,-7,-5.34,-0.145,-21,–,–,–,–,–
CS(=O)(=O)CCNCc1ccc(-c2ccc3ncnc(Nc4ccc(OCc5cccc(F)c5)c(Cl)c4)c3c2)o1 [lapatinib],12,–,-2.33,-0.865,-0.636,10,–,–,–,–,–
Cc1cn(-c2cc(NC(=O)c3ccc(C)c(Nc4nccc(-c5cccnc5)n4)c3)cc(C(F)(F)F)c2)cn1 [nilotinib],-15,–,-18,–,-29,12,–,–,–,91,–
Cc1ccc(Nc2nccc(N(C)c3ccc4c(C)n(C)nc4c3)n2)cc1S(N)(=O)=O [pazopanib],-7,–,–,16,–,9,–,–,–,–,–
Cc1ccc(C(=O)Nc2ccc(CN3CCN(C)CC3)c(C(F)(F)F)c2)cc1C#Cc1cnc2cccnn12 [ponatinib],3.23,20,68,101,101,-2.58,–,–,–,–,–
CNC(=O)c1cc(Oc2ccc(NC(=O)Nc3ccc(Cl)c(C(F)(F)F)c3)c(F)c2)ccn1 [regorafenib],-3,3.37,66,80,–,-16,–,–,–,–,–
N#CC[C@H](C1CCCC1)n1cc(-c2ncnc3[nH]ccc23)cn1 [ruxolitinib],4.66,16,60,0.569,24,53,–,–,–,–,–
CCN(CC)CCNC(=O)c1c(C)[nH]c(/C=C2\C(=O)Nc3ccc(F)cc32)c1C [sunitinib],–,–,–,–,–,92,–,–,–,–,–
CO[C@H]1C[C@@H]2CC[C@@H](C)[C@@](O)(O2)C(=O)C(=O)N2CCCC[C@H]2C(=O)O[C@H]([C@H](C)C[C@@H]2CC[C@@H](OC(=O)C(C)(CO)CO)[C@H](OC)C2)CC(=O)[C@H](C)/C=C(\C)[C@@H](O)[C@@H](OC)C(=O)[C@H](C)C[C@H](C)/C=C/C=C/C=C/1C [temsirolimus],4.42,-8.55,-5,-9,-6.47,-26,–,–,–,–,–
CC(=O)Nc1cccc(-n2c(=O)n(C3CC3)c(=O)c3c(Nc4ccc(I)cc4F)n(C)c(=O)c(C)c32)c1 [trametinib],-0.719,-0.155,-1.84,-3.38,-1.45,-15,–,–,–,–,–
COc1cc2c(Nc3ccc(Br)cc3F)ncnc2cc1OCC1CCN(C)CC1 [vandetanib],27,-4.72,12,–,–,2.39,–,–,–,–,–
CCCS(=O)(=O)Nc1ccc(F)c(C(=O)c2c[nH]c3ncc(-c4ccc(Cl)cc4)cc23)c1F [vemurafenib],4,0.45,45,3.73,21,3.78,–,–,–,–,–
